# Data published in patent US20120053148A1, “INHIBITORS OF HEPATITIS C VIRUS” (GILEAD SCIENCES, INC., priority 2010, published 2012).
# Read-outs that look alike come from different tables or passages of the source.
# Tested on: HCV Replicon IB
# Experiment: HCV replicon assay in Huh-7 cells, genotype 1b (Rluc luciferase readout)
# Format: cell-based, hepatitis C virus
# Settings: for inhibition at 10 µM: 72 h, 1b-Rluc replicon, read-out: Inhibition @ 10 uM in 1b-Rluc; for EC50: read-out: EC50_HCV1B_
# [1] = Hepatitis C virus, Huh-7 cells, 3 days
# [2] = Hepatitis C virus, Huh-7, 72 h, HCV1B replicon, Huh-7 cells, 3 days
# [3] = HCV1B replicon, Huh-7 cells, 3 days
Compound,inhibition at 10 µM [1] [%],EC50 [2] [nM],also measured
Cc1cc(C(=O)NCC(O)Cc2ccccc2)nc2c(C(F)(F)F)cc(-c3ccccc3)cc12 (centres unmarked) [Compound 169],93,,
Cc1cc(-c2nnc(Nc3cn[nH]c3)s2)nc2c(C(C)(C)C)cc(C3CC3)cc12 [Compound 382],,14.2,
CCC(O)CNC(=O)c1cc(C)c2cc(-c3ccccc3)cc(C(F)(F)F)c2n1 (centres unmarked) [Compound 165],96.5,,
Cc1cc(-c2nnc(NCCCO)s2)nc2c(C(C)(C)C)cc(C3CC3)cc12 [Compound 380],,12.7,
Cc1cc(-c2nnc(NCC3CNC(=O)O3)o2)nc2c(C(C)(C)C)cc(C3CC3)cc12 (centres unmarked) [Compound 419],,43.9,
CC(C)(C)c1cc(C2CC2)cc2c(N)cc(C(=O)NC[C@@H]3CC4(CN3)SCCS4)nc12 [Compound 333],,6.32,
"Cc1cc(C(=O)NC[C@@H]2CC(F)(F)CCN2)nc2c(C(F)(F)F)cc(OC(F)F)cc12 (single isomer, unassigned) [Compound 202]",99.5,,
Cc1cc(-c2nnc(Nc3ccccn3)o2)nc2c(C(C)(C)C)cc(C3CC3)cc12 [Compound 402],,2.86,
Cc1cc(C(=O)NCc2ccccn2)nc2c(C(F)(F)F)cc(N(C)S(C)(=O)=O)cc12 [Compound 179],98.9,,
Cc1cc(C(=O)NCC2COC2)nc2c(C(C)(C)C)cc(C3CC3)cc12 [Compound 424],,488,
CCCCNc1nnc(-c2cc(C)c3cc(C4CC4)cc(C(C)(C)C)c3n2)s1 [Compound 377],,6.23,
Cc1cc(-c2nnc(NCC3OCCO3)o2)nc2c(S(C)(=O)=O)cc(C3CC3)cc12 [Compound 547],,185,
Cc1cc(-c2nnc(NCCCN3CCOCC3)s2)nc2c(C(F)(F)F)cc(C3CC3)cc12 [Compound 298],88,,
CC(C)(C)c1cc(C2CC2)cc2c(N)nc(C(=O)NCc3ncccn3)nc12 [Compound 433],,1.19,
Cc1cc(-c2nnc(NC[C@H]3C[C@@H](O)C3)o2)nc2c(C(C)(C)C)cc(C3CC3)cc12 [Compound 417],,6.11,
Cc1cc(-c2nnc(NCC3COCCO3)o2)nc2c(C(F)(F)F)cc(C3CC3)cc12 (centres unmarked) [Compound 250],99.9,,
CCC(=O)CNC(=O)c1cc(N)c2cc(C3CC3)cc(C(F)(F)F)c2n1 [Compound 220],100,,
Cc1cc(-c2nnc(NCCCO)o2)nc2c(C(F)(F)F)cc(C3CC3)cc12 [Compound 249],100,,
COCCNC(=O)CNC(=O)c1cc(C)c2cc(C3CC3)cc(C(F)(F)F)c2n1 [Compound 117],94.7,,
Cc1cc(C(=O)NCc2ncccn2)nc2c(OC(F)(F)F)cc(C3CC3)cc12 [Compound 440],,10.2,
Cc1cc(C(=O)NCC2(N)CC2)nc2c(C(F)(F)F)cc(C3CC3)cc12 [Compound 88],95.6,,
Cc1cc(-c2nnc(N[C@H]3C[C@H](O)C3)o2)nc2c(C(C)(C)C)cc(OCC(F)(F)F)cc12 [Compound 463],,3.76,
Cc1cc(-c2nnc(NCC(=O)N(C)C)o2)nc2c(C(F)(F)F)cc(C3CC3)cc12 [Compound 248],99.9,,
Cc1cc(-c2nnc(Nc3cccnc3)o2)nc2c(C(C)(C)C)cc(OCC(F)(F)F)cc12 [Compound 457],,4.1,
Cc1cc(C(=O)NC[C@@H]2CC3(CN2)OCCO3)nc2c(C(C)(C)C)cc(C3CC3)cc12 [Compound 431],,8.04,

Compound,inhibition at 10 µM [1] [%],EC50 [2] [nM],also measured
O=C(NCC1COCCN1)c1cc(O)c2cc(C3CC3)cc(C(F)(F)F)c2n1 (centres unmarked) [Compound 217],77,,
Cc1cc(-c2nnc(NCC3OCCS3)o2)nc2c(C(C)(C)C)cc(OCC(F)(F)F)cc12 (centres unmarked) [Compound 479],,1.14,
Cc1cc(-c2nnc(NCC[C@@H](C)O)o2)nc2c(C(C)(C)C)cc(OCC(F)(F)F)cc12 [Compound 455],,3.05,
"O=C(NC[C@@H]1C[C@@H](F)CN1)c1cc(Cl)c2cc(OC(F)F)cc(C(F)(F)F)c2n1 (single isomer, unassigned) [Compound 199]",98.1,,
Cc1cc(-c2nnc(NCC3OCCO3)o2)nc2c(C(C)(C)C)cc(OC(F)F)cc12 [Compound 524],,1.25,
Cc1cc(C(=O)NCC2COCC(C)(C)N2)nc2c(C(F)(F)F)cc(C3CC3)cc12 (centres unmarked) [Compound 133],92.4,,
CC(C)(C)c1cc(C2CC2)cc2c(N)cc(C(=O)NCc3ccccn3)nc12 [Compound 230],100,,
C#Cc1cc(C(F)(F)F)c2nc(C(=O)NCc3ccccn3)cc(C)c2c1 [Compound 146],99.4,,
Cc1cc(-c2nnc(N[C@H]3C[C@@H](O)C3)o2)nc2c(C(C)(C)C)cc(C3CC3)cc12 [Compound 421],,3.24,
Cc1cc(-c2nnc(N[C@H]3CC[C@@H](O)C3)o2)nc2c(C(C)(C)C)cc(OCC(F)(F)F)cc12 (racemic) [Compound 476],,1.32,
CC(C)(C)c1cc(C2CC2)cc2c(N)cc(-c3nnc(NCCCC(F)(F)F)o3)nc12 [Compound 356],,10.6,
CC(C)(C)c1cc(C2CC2)cc2c(N)cc(-c3nnc(NCC4OCCO4)o3)nc12 [Compound 342],,2.11,
CNc1cc(C(=O)NCc2ccccn2)nc2c(C(F)(F)F)cc(C3CC3)cc12 [Compound 216],98.2,,
Cc1cc(C(=O)NCC2(O)CCCC2)nc2c(C(F)(F)F)cc(C3CC3)cc12 [Compound 94],99.9,,
Cc1cc(C(=O)NC[C@@H]2CC(F)(F)CCN2)nc2c(C(F)(F)F)cc(C3CC3)cc12 [Compound 132],100,,
Cc1cc(-c2nnc(NCCOCCO)s2)nc2c(C(F)(F)F)cc(C3CC3)cc12 [Compound 292],97.9,,
Cc1cc(C(=O)NCc2ccccn2)nc2c(C(C)(C)C)cc(C3CC3)cc12 [Compound 226],100,,
Cc1cc(-c2nnc(NCC3CSCCN3)s2)nc2c(C(F)(F)F)cc(C3CC3)cc12 (centres unmarked) [Compound 312],,2120,
Cc1cc(C(=O)NCC2(NC(=O)OC(C)(C)C)CC2)nc2c(C(F)(F)F)cc(C3CC3)cc12 [Compound 87],84.5,,
CO[C@H]1CN[C@H](CNC(=O)c2cc(C)c3cc(C4CC4)cc(C(C)(C)C)c3n2)C1 [Compound 425],,12.4,
Cc1cc(OC(F)(F)F)c2nc(C(=O)NCc3cnccn3)cc(C)c2c1 [Compound 445],,257,
Cc1cc(-c2nnc(N[C@H]3C[C@@H](O)C3)o2)nc2c(C(C)(C)C)cc(OCC(C)(C)O)cc12 [Compound 536],,,"EC50 (Hepatitis C virus, Huh-7, 72 h): 31.4 nM"
CCC(O)CNC(=O)c1cc(Cl)c2cc(OC(F)F)cc(C(F)(F)F)c2n1 (centres unmarked) [Compound 204],95.5,,
Cc1cc(-c2nnc(NC3COC3)o2)nc2c(C(C)(C)C)cc(OCC(F)(F)F)cc12 [Compound 487],,41.5,
CC(C)(O)CCNc1nnc(-c2cc(N)c3cc(C4CC4)cc(C(C)(C)C)c3n2)o1 [Compound 367],,2.15,

Compound,inhibition at 10 µM [1] [%],EC50 [2] [nM],also measured
Cc1cc(-c2nnc(NCC3OCCO3)o2)nc2c(C(C)(C)C)cc(OCC(F)F)cc12 [Compound 526],,1.64,
CNc1cc(C(F)(F)F)c2nc(C(=O)NCc3ccccn3)cc(C)c2c1 [Compound 181],99.4,,
Cc1cc(-c2nnc(NC3CS(=O)(=O)C3)o2)nc2c(C(C)(C)C)cc(OCC(F)(F)F)cc12 [Compound 506],,62.5,
Cc1cc(-c2nnc(Nc3cccnc3)o2)nc2c(C(C)(C)C)cc(OCC(C)(C)O)cc12 [Compound 537],,69.1,
Cc1cc(-c2nnc(NC[C@H]3C[C@H](O)C3)o2)nc2c(C(C)(C)C)cc(C3CC3)cc12 [Compound 418],,4.58,
CC(C)(C)c1cc(C2CC2)cc2c(N)cc(-c3nnc(NC[C@@H]4CCCO4)o3)nc12 [Compound 350],,1.9,
Cc1cc(C(=O)NC[C@@H]2COCCN2)nc2c(C(F)(F)F)cc(C3CC3(F)F)cc12 (some centres unmarked) [Compound 155],99.7,,
Cc1cc(C(=O)NCc2ccccn2)nc2c(C(F)(F)F)cc(C3CC3(F)F)cc12 (centres unmarked) [Compound 154],100,,
CC(C)(C)c1cc(C2CC2)cc2c(N)cc(C(=O)NCC3CS(=O)(=O)CCN3)nc12 (centres unmarked) [Compound 324],,,EC50 [3]: 3.63 nM
N#Cc1cc(-c2nnc(Nc3ccccc3)o2)nc2c(C(F)(F)F)cc(-c3ccccc3)cc12 [Compound 175],89.3,,
Cc1cc(C(=O)NCCC2CCCCN2)nc2c(C(F)(F)F)cc(C3CC3)cc12 (centres unmarked) [Compound 124],99.2,,
Cc1cc(-c2nnc(N[C@H]3C[C@@](O)(CO)C3)o2)nc2c(C(C)(C)C)cc(C3CC3)cc12 [Compound 514],,11.2,
CCC(=O)CNC(=O)c1cc(C)c2cc(C3CC3)cc(C(F)(F)F)c2n1 [Compound 95],100,,
Cc1cc(-c2nnc(N[C@H]3C[C@@](O)(CF)C3)o2)nc2c(C(C)(C)C)cc(OCC(F)(F)F)cc12 [Compound 517],,5.76,
CO[C@H]1CN[C@H](CNC(=O)c2nc(N)c3cc(C4CC4)cc(C(C)(C)C)c3n2)C1 [Compound 432],,83.3,
Cc1cc(C(=O)NC[C@@H]2CC(O)CN2)nc2c(C(F)(F)F)cc(OC(F)F)cc12 (some centres unmarked) [Compound 191],50.2,,
CS(=O)(=O)N1CCNC(CNC(=O)c2cc(N)c3cc(OC(F)F)cc(C(F)(F)F)c3n2)C1 (centres unmarked) [Compound 318],,44400,
Cc1cc(C(=O)NCCCN2CC(O)C2)nc2c(C(F)(F)F)cc(C3CC3)cc12 [Compound 126],90.1,,
Cc1cc(C(=O)NCC2CC(F)(F)CN2)nc2c(OC(F)(F)F)cc(C3CC3)cc12 (centres unmarked) [Compound 437],,20.2,
O=C(NCc1ccccn1)c1cc(Cl)c2cc(OC(F)(F)F)cc(Br)c2n1 [Compound 236],86.4,,
CC(C)(C)c1cc(C2CC2)cc2c(N)cc(C(=O)NCC3CS(=O)(=O)CCN3)nc12 (centres unmarked) [Compound 334],,,EC50 [3]: 1.71 nM
Cc1cc(-c2nnc(NC3CC4(COCO4)C3)o2)nc2c(C(C)(C)C)cc(C3CC3)cc12 (centres unmarked) [Compound 515],,15.9,
Cc1cc(-c2nnc(N)s2)nc2c(C(C)(C)C)cc(C3CC3)cc12 [Compound 379],,1100,
Cc1cc(-c2nnc(NCC3OCCO3)o2)nc2c(C(C)(C)C)cc(OCC3OCCO3)cc12 [Compound 533],,306,
